{"source": "patent US20030187048A1", "about": "“Method for inhibiting skin lesion formation using histamine as the active ingredient” (priority 1991, published 2003)", "key": {"herpes genitalis lesions": {"tested_on": "herpes genitalis lesions", "conditions": "for Burning score / Local pain score: scale 0 to 5; for Reduction in Complete Healing Time: vs usual episode", "procedure": "Treatment consisted of topical application three times a day for a period of five days. […] The percent reduction in complete healing time as compared to a usual episode was evaluated grouping the two patients who received active gel concentrations together and comparing to the two patients receiving placebo gel.\n(§1) Each patient was contacted daily for 5 days for his or her estimate of the symptomatic relief of 6 common symptoms associated with genital herpes as well as the patient's interpretation of total healing of the episode. In an attempt to quantify responses, patients were asked to rate each symptom on a scale of 0 to 5 with 0 representing no evidence of the symptom and 5 representing the worst or most prominent evidence of the symptom ever for the patient. Subject compliance with the study regimen and the use of other medications was also assessed."}, "[1]": {"tested_on": "herpes zoster (shingles) lesions", "conditions": "for Burning score / Local pain score: […] IEP gel, scale 0 to 5", "procedure": "The percent reduction in complete healing time as compared to a usual episode was evaluated comparing the two patients who received active gel concentrations to the two patients receiving placebo gel. […] Subjects were assigned randomly to one of two active ingredient levels being evaluated, 0.0% and 0.015% by weight of active ingredient.\nas §1, with “weekly” for “daily for 5 days”, “2” for “6”, “with” for “with genital”, “herpes zoster (shingles)” for “herpes”"}, "Allergic Conjunctivitis": {"tested_on": "Allergic Conjunctivitis", "procedure": "(§2) The composition of the present invention includes initial preparation of a gel base by adding 0.8% CARBOPOL 940, which is a vinyl polymer, to distilled water. This mixture was allowed to stand for several hours until the polymer was wetted and a gel was formed. This mixture then was blended by means of a ordinary high speed mixer, such as a Lightning Labmaster II until a homogenous mixture is formed. At this point, a neutralizing and emulsifying agent such as an amino alcohol was added, forming an emulsion. […] This composition then was applied topically to various types of lesions, as subsequently described. […] Propylparaben or methylparaben may be used as a preservative. For “unidose” dispensers containing only two to three drops, no preservatives are used, as it is known that preservatives in ophthalmic solutions frequently cause undesirable side effects. The term semi-synthetic water soluble polymer as used herein includes hydroxy methylcellulose or carboxy methylcellulose. Carbopol is widely available in different viscosities.\nTreatment consisted of topical ophthalmic application of both ophthalmic solution concentrations to their randomly assigned patients 2 times a day for 5 days. […] Each patient was clinically evaluated at 48 hours and 120 hours following the initiation of treatment for 2 parameters of tissue damage associated with Allergic Conjunctivitis. In addition, each patient was asked to evaluate subjectively 3 symptoms associated with Allergic Conjunctivitis 48 hours and 120 hours after treatment initiation. The percent reduction from the initial presentation of each of the parameters of tissue damage and the initial presentation for each additional symptom evaluated was calculated from 48 and 120 hour post treatment initiation data.\n(§3) Patients were randomly assigned to one of two active levels being evaluated.\n(§4) Clinical evaluation was performed at 48 hours and 120 hours post treatment initiation. Each patient was asked to subjectively evaluate 3 additional symptoms associated with Allergic Conjunctivitis by rating each symptom on a scale of 0 to 5 with 0 representing no evidence of symptom and 5 representing the greatest evidence of the symptom ever by the patient. clinical evaluation of tissue damage parameters was also done using the same scale of 0 to 5.\nPatient compliance with the treatment regimen and the use of other medications was also evaluated."}, "[2]": {"tested_on": "Giant Papillary Conjunctivitis", "procedure": "as §2\nTreatment consisted of topical ophthalmic application of both ophthalmic solution concentrations to their randomly assigned patients 2 times a day for 5 days. […] Each patient was clinically evaluated at 48 hours and 120 hours following the initiation of treatment for 2 parameters of tissue damage associated with Giant Papillary Conjunctivitis. In addition, each patient was asked to evaluate subjectively 2 symptoms associated with Giant Papillary conjunctivitis 48 hours and 120 hours after treatment initiation. The percent reduction from the initial presentation of each of the parameters of tissue damage and the initial presentation for each additional symptom evaluated was calculated from 48 and 120 hour post treatment initiation data.\nas §3\nas §4, with “2” for “3”, “Giant Papillary” for “Allergic”, “Clinical” for “clinical”, “5. Patient compliance with the treatment regimen and the use of other medications was also evaluated.” for “5.”"}, "[3]": {"conditions": "0.0067% ophth soln, 48 hrs, per patient"}, "[4]": {"conditions": "0.0067% ophth soln, 120 hrs, per patient"}, "[5]": {"conditions": "0.0067% ophth soln, scale 0 to 5, per patient"}, "[6]": {"conditions": "0.0067% ophth soln, 48 hr, per patient"}, "[7]": {"conditions": "0.0067% ophth soln, 120 hr, per patient"}}, "note": "Several values for one entry are separate records, joined by “and”; a condition that tells them apart may be missing. Identical values can stand only once. Like-named read-outs stand apart in the source and are kept apart here."}
{"smiles": "NCCc1c[nH]cn1", "note": "[IEP, 1H-imidazole-4-ethanamine,phosphate]", "values": [{"measurement": "Burning score", "setting": "herpes genitalis lesions; 0.0275% IEP gel, day 1", "value": 3}, {"measurement": "Local pain score", "setting": "herpes genitalis lesions; 0.0275% IEP gel, day 1 of treatment", "value": 3}, {"measurement": "Burning score", "setting": "herpes genitalis lesions; 0.0275% IEP gel, day 2", "value": 0}, {"measurement": "Local pain score", "setting": "herpes genitalis lesions; 0.0275% IEP gel, day 2", "value": 0}, {"measurement": "Burning score", "setting": "herpes genitalis lesions; 0.0275% IEP gel, day 3", "value": 0}, {"measurement": "Local pain score", "setting": "herpes genitalis lesions; 0.0275% IEP gel, day 3", "value": 0}, {"measurement": "Burning score", "setting": "herpes genitalis lesions; 0.0275% IEP gel, day 4", "value": 0}, {"measurement": "Local pain score", "setting": "herpes genitalis lesions; 0.0275% IEP gel, day 4", "value": 0}, {"measurement": "Burning score", "setting": "herpes genitalis lesions; 0.0275% IEP gel, day 5", "value": 0}, {"measurement": "Local pain score", "setting": "herpes genitalis lesions; 0.0275% IEP gel, day 5", "value": 0}, {"measurement": "Healing Time", "setting": "herpes genitalis lesions; 0.0275% IEP gel, patient 603, usual healing time 7 days", "value": 1, "unit": "days"}, {"measurement": "Reduction in Complete Healing Time", "setting": "herpes genitalis lesions; 0.0275% IEP gel", "value": 85, "unit": "%"}, {"measurement": "Burning score", "setting": "herpes genitalis lesions; […] IEP gel, day 1", "value": 3}, {"measurement": "Local pain score", "setting": "herpes genitalis lesions; […] IEP gel, day 1", "value": 4}, {"measurement": "Burning score", "setting": "herpes genitalis lesions; […] IEP gel, day 2", "value": 1}, {"measurement": "Local pain score", "setting": "herpes genitalis lesions; […] IEP gel, day 2", "value": 2}, {"measurement": "Burning score", "setting": "herpes genitalis lesions; […] IEP gel, day 3", "value": 0}, {"measurement": "Local pain score", "setting": "herpes genitalis lesions; […] IEP gel, day 3", "value": 2}, {"measurement": "Burning score", "setting": "herpes genitalis lesions; […] IEP gel, day 4", "value": 0}, {"measurement": "Local pain score", "setting": "herpes genitalis lesions; […] IEP gel, day 4", "value": 0}, {"measurement": "Burning score", "setting": "herpes genitalis lesions; […] IEP gel, day 5", "value": 0}, {"measurement": "Local pain score", "setting": "herpes genitalis lesions; […] IEP gel, day 5", "value": 0}, {"measurement": "Healing Time", "setting": "herpes genitalis lesions; […] IEP gel, patient 604, usual healing time 7 days", "value": 3.5, "unit": "days"}, {"measurement": "Reduction in Complete Healing Time", "setting": "herpes genitalis lesions; […] IEP gel", "value": 50, "unit": "%"}, {"measurement": "Difference in percent reduction in complete healing time vs placebo", "setting": "herpes genitalis lesions; combined […] and 0.0275% groups, p<0.05", "value": "significant"}, {"measurement": "Untoward reactions", "setting": "herpes genitalis lesions; topical gel […], 0.0275%, three times a day for five days", "value": "no untoward reactions"}, {"measurement": "Burning score", "setting": "[1]; week 2", "value": 3}, {"measurement": "Local pain score", "setting": "[1]; week 2", "value": 2}, {"measurement": "Burning score", "setting": "[1]; week 3", "value": 0}, {"measurement": "Local pain score", "setting": "[1]; week 3", "value": 0}, {"measurement": "Burning score", "setting": "[1]; week 4", "value": 0}, {"measurement": "Local pain score", "setting": "[1]; week 4", "value": 0}, {"measurement": "Burning score", "setting": "[1]; week 5", "value": 0}, {"measurement": "Local pain score", "setting": "[1]; week 5", "value": 0}, {"measurement": "Difference in percent reduction in complete healing time vs placebo", "setting": "[1]; […] gel, p<0.05", "value": "significant"}, {"measurement": "Untoward reactions", "setting": "[1]; topical gel […], three times a day", "value": "no untoward reactions"}, {"measurement": "Edema, Percent Reduction from Pre-Treatment Value", "setting": "Allergic Conjunctivitis; [3]", "value": "66.67% and 50.0% and 100.0%"}, {"measurement": "Itching, Percent Reduction from Pre-Treatment Value", "setting": "Allergic Conjunctivitis; [3]", "value": "100.0% (2×) and 50.0%"}, {"measurement": "Level of Discomfort, Percent Reduction from Pre-Treatment Value", "setting": "Allergic Conjunctivitis; [3]", "value": "66.67% and 75.0% and 100.0%"}, {"measurement": "Redness, Percent Reduction from Pre-Treatment Value", "setting": "Allergic Conjunctivitis; [3]", "value": "66.67% (2×) and 75.0%"}, {"measurement": "Tearing, Percent Reduction from Pre-Treatment Value", "setting": "Allergic Conjunctivitis; [3]", "value": "100.0% and 50.0%"}, {"measurement": "Edema, Percent Reduction from Pre-Treatment Value", "setting": "Allergic Conjunctivitis; [4]", "value": 100.0, "unit": "%"}, {"measurement": "Itching, Percent Reduction from Pre-Treatment Value", "setting": "Allergic Conjunctivitis; [4]", "value": 100.0, "unit": "%"}, {"measurement": "Level of Discomfort, Percent Reduction from Pre-Treatment Value", "setting": "Allergic Conjunctivitis; [4]", "value": "66.7% and 100.0% (2×)"}, {"measurement": "Redness, Percent Reduction from Pre-Treatment Value", "setting": "Allergic Conjunctivitis; [4]", "value": "100.0% and 75.0% and 66.67%"}, {"measurement": "Tearing, Percent Reduction from Pre-Treatment Value", "setting": "Allergic Conjunctivitis; [4]", "value": "100.0% (2×) and 75.0%"}, {"measurement": "Conjunctival Injection or Redness, Value at 48 Hours", "setting": "Allergic Conjunctivitis; [5]", "value": "1 (2×) and 3"}, {"measurement": "Edema, Value at 120 Hours", "setting": "Allergic Conjunctivitis; [5]", "value": 0}, {"measurement": "Itching, Value at 120 Hours", "setting": "Allergic Conjunctivitis; [5]", "value": 0}, {"measurement": "Difference in percent reduction of tissue damage parameters and symptoms vs placebo ophthalmic solution", "setting": "Allergic Conjunctivitis; 0.0067% ophthalmic solution", "value": "either significant (p<0.05) or highly significant (p<.O1)"}, {"measurement": "Untoward effects", "setting": "Allergic Conjunctivitis; in vivo", "value": "no untoward effects"}, {"measurement": "Exudation, Percent Reduction from Pre-Treatment Value", "setting": "[2]; [6]", "value": "50.0% and 75.0% and 100.0%"}, {"measurement": "Itch/Burn, Percent Reduction from Pre-Treatment Value", "setting": "[2]; [6]", "value": "75.0% and 80.0% and 100.0%"}, {"measurement": "Redness, Percent Reduction from Pre-Treatment Value", "setting": "[2]; [6]", "value": "50.0% and 66.67% and 100.0%"}, {"measurement": "Contact Lens Tolerance, Percent Reduction from Pre-Treatment Value", "setting": "[2]; [7]", "value": 100.0, "unit": "%"}, {"measurement": "Exudation, Percent Reduction from Pre-Treatment Value", "setting": "[2]; [7]", "value": 100.0, "unit": "%"}, {"measurement": "Itch/Burn, Percent Reduction from Pre-Treatment Value", "setting": "[2]; [7]", "value": 100.0, "unit": "%"}, {"measurement": "Redness, Percent Reduction from Pre-Treatment Value", "setting": "[2]; [7]", "value": 100.0, "unit": "%"}, {"measurement": "Conjunctival Injection (redness), Value at 120 Hours", "setting": "[2]; [5]", "value": 0}, {"measurement": "Contact Lens Tolerance, Value at 120 hours", "setting": "[2]; [5]", "value": 0}, {"measurement": "Exudation, Value at 120 Hours", "setting": "[2]; [5]", "value": 0}, {"measurement": "Itching and Burning, Value at 120 hours", "setting": "[2]; [5]", "value": 0}, {"measurement": "Difference in percent reduction of tissue damage parameters and symptoms vs placebo ophthalmic solution", "setting": "[2]; 0.0067% ophthalmic solution, except contact lens tolerance at 48 hours", "value": "either significant (p<0.05) or highly significant (p<.O1)"}, {"measurement": "Decrease in size of the papilla", "setting": "[2]; end of the 5 day treatment period, any of the patients", "value": "a significant decrease in size of the papilla was not noted"}, {"measurement": "Untoward effects", "setting": "[2]; in vivo", "value": "no untoward effects"}]}
